Data published in PubChem BioAssay AID2060905 (Molecular Pharmacology Branch, DTP, NCI, 2025).

Tested on: 282377-053-R-J1-PDC complex spheroid viability
Experiment: Anticancer human tumor 282377-053-R-J1-PDC patient-derived colon adenocarcinoma cell line growth inhibition [RAS]
Settings: for IC50: curve of first compound; for viability, T/C: stronger effect = lower value
How it was run: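 Multi-cell-type spheroids: tumor cells plus HUVEC endothelial cells and mesenchymal stem cells. RAS-pathway inhibitors were combined with targeted agents, each dosed in half-log steps down from clinical Cmax, or from 10 microM when Cmax was unknown.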

[1] = second compound 0.000949 µM, first compound 0.0316 µM
[2] = second compound 0.000949 µM, first compound 0.1 µM
[3] = second compound 0.000949 µM, first compound 0.316 µM
[4] = second compound 0.000949 µM, first compound 1 µM
[5] = second compound 0.000949 µM, first compound 3.16 µM
[6] = second compound 0.000949 µM, first compound 10 µM
[7] = second compound 0.003 µM, first compound 0.0316 µM
[8] = second compound 0.003 µM, first compound 0.1 µM
[9] = second compound 0.003 µM, first compound 0.316 µM
[10] = second compound 0.003 µM, first compound 1 µM
[11] = second compound 0.003 µM, first compound 3.16 µM
[12] = second compound 0.003 µM, first compound 10 µM
[13] = second compound 0.00949 µM, first compound 0.0316 µM
[14] = second compound 0.00949 µM, first compound 0.1 µM
[15] = second compound 0.00949 µM, first compound 0.316 µM
[16] = second compound 0.00949 µM, first compound 1 µM
[17] = second compound 0.00949 µM, first compound 3.16 µM
[18] = second compound 0.00949 µM, first compound 10 µM
[19] = second compound 0.03 µM, first compound 0.0316 µM
[20] = second compound 0.03 µM, first compound 0.1 µM
[21] = second compound 0.03 µM, first compound 0.316 µM
[22] = second compound 0.03 µM, first compound 1 µM
[23] = second compound 0.03 µM, first compound 3.16 µM
[24] = second compound 0.03 µM, first compound 10 µM
[25] = second compound 0.0949 µM, first compound 0.0316 µM
[26] = second compound 0.0949 µM, first compound 0.1 µM
[27] = second compound 0.0949 µM, first compound 0.316 µM
[28] = second compound 0.0949 µM, first compound 1 µM
[29] = second compound 0.0949 µM, first compound 3.16 µM
[30] = second compound 0.0949 µM, first compound 10 µM
[31] = second compound 0.3 µM, first compound 0.0316 µM
[32] = second compound 0.3 µM, first compound 0.1 µM
[33] = second compound 0.3 µM, first compound 0.316 µM
[34] = second compound 0.3 µM, first compound 1 µM
[35] = second compound 0.3 µM, first compound 3.16 µM
[36] = second compound 0.3 µM, first compound 10 µM
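Further: spheroids exposed to agents for seven days before readout.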
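Wherever viability, T/C is given: luminescence viability as percent of DMSO vehicle control wells.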

SMILES: CC(C)NCC(C(=O)N1CCN(c2ncnc3c2C(C)CC3O)CC1)c1ccc(Cl)cc1 (stereo unspecified) + CCn1c(-c2cc(N3CCN(C)CC3)cnc2C(C)OC)c2c3cc(ccc31)-c1csc(n1)CC(NC(=O)C1CC1C)C(=O)N1CCCC(N1)C(=O)OCC(C)(C)C2
- IC50 (second compound 0.000949 µM): > 10 µM
- IC50 (second compound 0.003 µM): > 10 µM
- IC50 (second compound 0.00949 µM): > 10 µM
- IC50 (second compound 0.03 µM): > 10 µM
- IC50 (second compound 0.0949 µM): > 10 µM
- IC50 (second compound 0.3 µM): > 10 µM
- viability, T/C [1]: 96.1%
- viability, T/C [2]: 93.7%
- viability, T/C [3]: 80.8%
- viability, T/C [4]: 79.4%
- viability, T/C [5]: 78%
- viability, T/C [6]: 76.5%
- viability, T/C [7]: 90.7%
- viability, T/C [8]: 106%
- viability, T/C [9]: 88.2%
- viability, T/C [10]: 71.8%
- viability, T/C [11]: 76.2%
- viability, T/C [12]: 68.3%
- viability, T/C [13]: 93%
- viability, T/C [14]: 119%
- viability, T/C [15]: 79.4%
- viability, T/C [16]: 68%
- viability, T/C [17]: 70.7%
- viability, T/C [18]: 69.1%
- viability, T/C [19]: 111%
- viability, T/C [20]: 83.1%
- viability, T/C [21]: 82.5%
- viability, T/C [22]: 70%
- viability, T/C [23]: 65.3%
- viability, T/C [24]: 64.4%
- viability, T/C [25]: 95.3%
- viability, T/C [26]: 87.6%
- viability, T/C [27]: 93.8%
- viability, T/C [28]: 62.8%
- viability, T/C [29]: 63.8%
- viability, T/C [30]: 65.4%
- viability, T/C [31]: 100%
- viability, T/C [32]: 86.6%
- viability, T/C [33]: 109%
- viability, T/C [34]: 69.1%
- viability, T/C [35]: 64.6%
- viability, T/C [36]: 69.9%

SMILES: CC(Nc1ccc2c(c1)OCCn1cc(N3C(=O)OCC3C(F)F)nc1-2)C(N)=O (stereo unspecified) + CCn1c(-c2cc(N3CCN(C)CC3)cnc2C(C)OC)c2c3cc(ccc31)-c1csc(n1)CC(NC(=O)C1CC1C)C(=O)N1CCCC(N1)C(=O)OCC(C)(C)C2
- IC50 (second compound 0.000949 µM): > 10 µM
- IC50 (second compound 0.003 µM): > 10 µM
- IC50 (second compound 0.00949 µM): > 10 µM
- IC50 (second compound 0.03 µM): > 10 µM
- IC50 (second compound 0.0949 µM): > 10 µM
- IC50 (second compound 0.3 µM): > 10 µM
- viability, T/C [1]: 95.5%
- viability, T/C [2]: 104%
- viability, T/C [3]: 81.1%
- viability, T/C [4]: 80%
- viability, T/C [5]: 74.3%
- viability, T/C [6]: 77.4%
- viability, T/C [7]: 96.5%
- viability, T/C [8]: 104%
- viability, T/C [9]: 95.2%
- viability, T/C [10]: 81.8%
- viability, T/C [11]: 75.3%
- viability, T/C [12]: 70.6%
- viability, T/C [13]: 103%
- viability, T/C [14]: 83.4%
- viability, T/C [15]: 109%
- viability, T/C [16]: 96.5%
- viability, T/C [17]: 84.5%
- viability, T/C [18]: 68.3%
- viability, T/C [19]: 86.6%
- viability, T/C [20]: 83.2%
- viability, T/C [21]: 84.1%
- viability, T/C [22]: 80.3%
- viability, T/C [23]: 82.2%
- viability, T/C [24]: 70.7%
- viability, T/C [25]: 90.6%
- viability, T/C [26]: 82.9%
- viability, T/C [27]: 93.7%
- viability, T/C [28]: 95.3%
- viability, T/C [29]: 82.9%
- viability, T/C [30]: 98.7%
- viability, T/C [31]: 106%
- viability, T/C [32]: 78.9%
- viability, T/C [33]: 94.3%
- viability, T/C [34]: 104%
- viability, T/C [35]: 84.3%
- viability, T/C [36]: 87.9%

SMILES: O=C(c1ccc(F)c(F)c1Nc1ccc(I)cc1F)N1CC(O)([C@@H]2CCCCN2)C1 + CCn1c(-c2cc(N3CCN(C)CC3)cnc2C(C)OC)c2c3cc(ccc31)-c1csc(n1)CC(NC(=O)C1CC1C)C(=O)N1CCCC(N1)C(=O)OCC(C)(C)C2
- IC50 (second compound 0.000949 µM): 0.0382 µM
- IC50 (second compound 0.003 µM): 0.0567 µM
- IC50 (second compound 0.00949 µM): 0.0377 µM
- IC50 (second compound 0.03 µM): 0.0119 µM
- IC50 (second compound 0.0949 µM): 0.0179 µM
- IC50 (second compound 0.3 µM): 0.0143 µM
- viability, T/C (second compound 0.000949 µM, first compound 0.00316 µM): 68.3%
- viability, T/C (second compound 0.000949 µM, first compound 0.01 µM): 65.3%
- viability, T/C [1]: 49.6%
- viability, T/C [2]: 39.9%
- viability, T/C [3]: 27.2%
- viability, T/C [4]: 16.9%
- viability, T/C (second compound 0.003 µM, first compound 0.00316 µM): 70.3%
- viability, T/C (second compound 0.003 µM, first compound 0.01 µM): 61.9%
- viability, T/C [7]: 69.6%
- viability, T/C [8]: 33.2%
- viability, T/C [9]: 26.1%
- viability, T/C [10]: 14.6%
- viability, T/C (second compound 0.00949 µM, first compound 0.00316 µM): 68%
- viability, T/C (second compound 0.00949 µM, first compound 0.01 µM): 67.4%
- viability, T/C [13]: 51.7%
- viability, T/C [14]: 34%
- viability, T/C [15]: 22.1%
- viability, T/C [16]: 16%
- viability, T/C (second compound 0.03 µM, first compound 0.00316 µM): 77.4%
- viability, T/C (second compound 0.03 µM, first compound 0.01 µM): 43%
- viability, T/C [19]: 45.9%
- viability, T/C [20]: 26.7%
- viability, T/C [21]: 20.6%
- viability, T/C [22]: 15.4%
- viability, T/C (second compound 0.0949 µM, first compound 0.00316 µM): 75.9%
- viability, T/C (second compound 0.0949 µM, first compound 0.01 µM): 68%
- viability, T/C [25]: 32%
- viability, T/C [26]: 23.8%
- viability, T/C [27]: 18.1%
- viability, T/C [28]: 13.8%
- viability, T/C (second compound 0.3 µM, first compound 0.00316 µM): 67.8%
- viability, T/C (second compound 0.3 µM, first compound 0.01 µM): 58.6%
- viability, T/C [31]: 31.1%
- viability, T/C [32]: 21.5%
- viability, T/C [33]: 18.8%
- viability, T/C [34]: 15.8%
